Reference: a compilation of properties of binary mixtures (doi:10.1590/0104-6632.20180352s20160280)

Assay: xn = mol fraction of the nth substance listed
Settings: 100 kPa

## O=C[O-].OCC[NH2+]CCO + O
293.15 K, x1 = 0.0292
  viscosity: 1.69 mPa·s
293.15 K, x1 = 0.1516
  viscosity: 8.2 mPa·s
293.15 K, x1 = 0.2184
  viscosity: 16.1 mPa·s
293.15 K, x1 = 0.5155
  viscosity: 112 mPa·s
293.15 K, x1 = 0.5932
  viscosity: 133 mPa·s
293.15 K, x1 = 0.7378
  viscosity: 243 mPa·s
293.15 K, x1 = 0.7987
  viscosity: 329 mPa·s
303.15 K, x1 = 0.075
  viscosity: 2.5 mPa·s
303.15 K, x1 = 0.1516
  viscosity: 5.9 mPa·s
303.15 K, x1 = 0.2184
  viscosity: 11 mPa·s
303.15 K, x1 = 0.3185
  viscosity: 23.2 mPa·s
303.15 K, x1 = 0.5155
  viscosity: 65 mPa·s
303.15 K, x1 = 0.5932
  viscosity: 76 mPa·s
303.15 K, x1 = 0.7378
  viscosity: 132 mPa·s
303.15 K, x1 = 1
  viscosity: 242 mPa·s
313.15 K, x1 = 0.0292
  viscosity: 1.1 mPa·s
313.15 K, x1 = 0.1516
  viscosity: 4.48 mPa·s
313.15 K, x1 = 0.2184
  viscosity: 8 mPa·s
313.15 K, x1 = 0.3185
  viscosity: 15.8 mPa·s
313.15 K, x1 = 0.5155
  viscosity: 40.7 mPa·s
313.15 K, x1 = 0.5932
  viscosity: 46.6 mPa·s
313.15 K, x1 = 0.7378
  viscosity: 77 mPa·s
313.15 K, x1 = 0.7987
  viscosity: 99 mPa·s
313.15 K, x1 = 1
  viscosity: 135 mPa·s
323.15 K, x1 = 0.0292
  viscosity: 0.93 mPa·s
323.15 K, x1 = 0.075
  viscosity: 1.64 mPa·s
323.15 K, x1 = 0.1516
  viscosity: 3.51 mPa·s
323.15 K, x1 = 0.2184
  viscosity: 6 mPa·s
323.15 K, x1 = 0.3185
  viscosity: 11.3 mPa·s
323.15 K, x1 = 0.5155
  viscosity: 27.1 mPa·s
323.15 K, x1 = 0.5932
  viscosity: 30.6 mPa·s
323.15 K, x1 = 0.7378
  viscosity: 49 mPa·s
323.15 K, x1 = 0.7987
  viscosity: 61 mPa·s
323.15 K, x1 = 1
  viscosity: 82 mPa·s
333.15 K, x1 = 0.0292
  viscosity: 0.8 mPa·s
333.15 K, x1 = 0.075
  viscosity: 1.38 mPa·s
333.15 K, x1 = 0.1516
  viscosity: 2.82 mPa·s
333.15 K, x1 = 0.2184
  viscosity: 4.68 mPa·s
333.15 K, x1 = 0.5155
  viscosity: 19 mPa·s
333.15 K, x1 = 0.5932
  viscosity: 21.2 mPa·s
333.15 K, x1 = 0.7378
  viscosity: 32.8 mPa·s
333.15 K, x1 = 1
  viscosity: 53 mPa·s
343.15 K, x1 = 0.0292
  viscosity: 0.7 mPa·s
343.15 K, x1 = 0.075
  viscosity: 1.18 mPa·s
343.15 K, x1 = 0.1516
  viscosity: 2.33 mPa·s
343.15 K, x1 = 0.2184
  viscosity: 3.75 mPa·s
343.15 K, x1 = 0.3185
  viscosity: 6.5 mPa·s
343.15 K, x1 = 0.5155
  viscosity: 13.9 mPa·s
343.15 K, x1 = 0.7378
  viscosity: 23 mPa·s
343.15 K, x1 = 0.7987
  viscosity: 27.8 mPa·s

## O + O=C[O-].OCC[NH2+]CCO
293.15 K, x2 = 0
  viscosity: 1 mPa·s
303.15 K, x2 = 0
  viscosity: 0.82 mPa·s
333.15 K, x2 = 0
  viscosity: 0.5 mPa·s
343.15 K, x2 = 0
  viscosity: 0.451 mPa·s
